Test system: human liver microsomes, compound remaining, LC-MS
Test: human microsomal compound turnover – biochemical, with and without NADPH, LC-MS, set 2, ADME assay (AID 624452);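 note: compound left measured after 60 min microsomal incubation at 37 °C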
Details: at 1 µM; for percent remaining without NADPH: measured here: stability without NADPH control

Row | percent remaining with NADPH | percent remaining without NADPH | SMILES
1 | 11.1% | 69.1% | COc1cccc(-c2nc(-c3ccc(NC(=O)Cc4ccccc4OC)cc3)no2)c1
2 | 28.1% | 67.5% | Cn1nnnc1Sc1ncnc2scc(-c3ccccc3)c12
3 | 8.76% | 72.1% | c1ccc2c(Nc3nnc(-c4ccncc4)s3)cccc2c1
4 | 0.04% | 79.6% | O=C(COc1ccccc1Br)NCCc1nc2ccccc2[nH]1
5 | 25.1% | 70.3% | CCOc1ccc(-c2nc(-c3ccncc3)no2)cc1OCC
6 | 53.7% | 100% | COC(=O)c1ccccc1NC(=O)c1ccc(F)cc1
7 | 35.8% | 66.7% | Cc1ccc(C)c(OCCn2cc(C(=O)O)c3ccccc32)c1
8 | 30.9% | 58% | Cc1ccccc1N1CCN(c2ncnc3c2cnn3Cc2ccc(Cl)cc2)CC1
9 | 65.6% | 61.5% | CCCc1nc2c(=O)n(C)c(=O)nc-2n(C)n1
10 | 64% | 78.9% | Cc1ccc(-n2c(N)c(C#N)c(-c3ccccc3)c(C#N)c2=O)cc1
11 | 0.08% | 69.4% | Cc1ccc(S(=O)(=O)C(c2ccccc2)c2c(C)noc2C)cc1 (centres undefined)
12 | 56.9% | 62% | NC(=O)C1CCN(c2nc(-c3ccc(Br)cc3)cs2)CC1
13 | 5.35% | 79.3% | COc1ccc(OC)c(-c2nnc3n2N=C(c2ccc(OC)c(OC)c2)CS3)c1
14 | 0.13% | 77.6% | CN(C)c1nc(N)nc(CSc2nnnn2-c2cccc3ccccc23)n1
15 | 12.6% | 78.5% | O=c1[nH]c(SCc2ccc(Cl)cc2)nc2c1CCC2
16 | 13.4% | 79.4% | Cc1cc(C)nc(-n2nc(C)c(Sc3ccc(F)cc3)c2N)n1
17 | 0.06% | 64.4% | Cc1cc2c(s1)c1cnn(Cc3ccccc3F)c(=O)c1n2C

Row | percent remaining with NADPH | percent remaining without NADPH | SMILES
18 | 37.9% | 70% | Cc1cccc(-n2cnc3cc(C(=O)N4CCCCC4)ccc32)c1
19 | 66.6% | 66.4% | Cn1cnc([N+](=O)[O-])c1Sc1ncnc2nc[nH]c12
20 | 30.6% | 65% | C=CCn1c(SCC(=O)c2ccc(O)c(O)c2)nnc1-c1ccccc1OC
21 | 48.3% | 81.5% | CCCOc1ccc(-c2nc(OC)c3ccccc3n2)cc1
22 | 0.26% | 36.9% | CN(C)C1=C(Cl)C(=O)N(c2ccc(Cl)c(Cl)c2)C1=O
23 | 0.22% | 70.5% | Cc1nc(SCc2nc3ccccc3[nH]2)c2oc3ccccc3c2n1
24 | 25.9% | 71.5% | COc1ccc(OC)c(S(=O)(=O)Nc2cnc3ccccc3c2)c1
25 | 52.9% | 65.4% | COc1ccc(S(=O)(=O)n2nc(OC(=O)c3ccccc3)cc2N)cc1
26 | 21% | 79.3% | Cc1ccc(S(=O)(=O)n2c(N)nc3ccccc32)cc1
27 | 59.6% | 70% | COc1ccc(C2CC(c3ccccc3)=NN2c2ccc(S(N)(=O)=O)cc2)cc1 (centres undefined)
28 | 29.7% | 79.3% | N#Cc1ccccc1CSc1nc2ncc(Br)cc2[nH]1
29 | 41.4% | 68.6% | COc1ccc(CSc2nc(C)cc(=O)[nH]2)cc1
30 | 0.45% | 74% | Cc1cc(C)n(-c2nc(NCCCO)c3c4c(sc3n2)CCCC4)n1
31 | 8.41% | 59.3% | COc1nc(-c2ccccc2)nnc1-c1ccccc1
32 | 25.2% | 74.8% | Cc1cc(-c2nnc3n2CCCCC3)c(C)n1-c1ccccc1
33 | 10.8% | 42.1% | CSc1nc(-c2ccc(C)cc2)nc(C(Cl)Cl)n1
34 | 35.5% | 67.2% | CN(C)c1oc(-c2ccc(OCc3ccc(Cl)cc3)cc2)nc1C#N

Further lines, the compound ahead of its results:

Row | SMILES | percent remaining with NADPH | percent remaining without NADPH
35 | Cc1ccc(N2CCN(S(=O)(=O)N3CCCCC3)CC2)c(C)c1 | 0.03% | 73.8%
36 | CCCn1ncc(CN2CCCC(C(=O)c3cccc(OC(C)C)c3)C2)c1C (centres undefined) | 1.55% | 79.4%
37 | Oc1cc(O)cc(/C=C/c2ccc(O)c(O)c2)c1 | 45.9% | 87.6%
38 | N#C/C(=C\c1ccc([N+](=O)[O-])o1)c1nc2ccccc2[nH]1 | 0.29% | 52.4%
39 | c1ccc(CC2CCN(c3ncnc4sccc34)CC2)cc1 | 9.66% | 54.9%
40 | CCOC(=O)C(C)Oc1cccc2c(=O)n(CC(=O)Nc3ccc4c(c3)OCCO4)ccc12 (centres undefined) | 68.7% | 75.6%
41 | COc1ccc(CNCc2cccc3ccccc23)cc1 | 0.21% | 70.7%
42 | O=[N+]([O-])c1ccc(CN2CCOCCOCCN(Cc3ccc([N+](=O)[O-])cc3)CCOCC2)cc1 | 0.31% | 72.8%
43 | COc1ccccc1N(/N=C1\Sc2ccccc2C1=O)C(C)=O | 0.32% | 68.5%
44 | Cc1ccc(C(=O)n2c3ccccc3c3ccccc32)cc1 | 24% | 48.7%
45 | O=S(=O)(NC1CCCCC1N1CCOCC1)c1ccc(Cl)cc1 (centres undefined) | 0.11% | 78.2%
46 | COc1ccc(N(C(=O)CCl)C(C(=O)NCCc2ccccc2)c2cccs2)cc1Cl (centres undefined) | 1.54% | 39.7%
47 | COc1ccc(C2c3c(ncn(CCN4CCOCC4)c3=N)Oc3ccc4ccccc4c32)cc1OC (centres undefined) | 7.15% | 87.2%
48 | O=C(O)CCC(NS(=O)(=O)c1ccc(-c2ccccc2)cc1)C(=O)O (centres undefined) | 75.8% | 74.2%
49 | O=C(O)c1ccccc1OCc1ccccc1Br | 67.3% | 70%
50 | O=c1[nH]c2c(s1)C(c1cccnc1)C1C3CCC(C3)C1S2 (centres undefined) | 7.76% | 71.9%
51 | O=C(O)c1cccnc1SCCc1ccccc1 | 61.4% | 74.9%
52 | O=C1NCCCc2c1oc1ccc(O)cc21 | 62.1% | 63%
53 | COc1ccc(S(=O)(=O)N2CCN(S(=O)(=O)c3ccc4c(c3)OCCO4)CC2)cc1 | 0.64% | 55.8%
54 | CC[C@H]1CN2CCc3cc(OC)c(OC)cc3[C@@H]2C[C@@H]1C[C@H]1NCCc2cc(OC)c(OC)cc21 | 45.4% | 89.3%
55 | CC(=O)c1ccc(N2CCN(S(=O)(=O)c3ccc4c(c3)CC(=O)N4)CC2)cc1 | 49% | 69.8%
56 | O=C(c1ccccn1)N(Cc1cccs1)C1(C(=O)NC2CCCCC2)CCCCC1 | 0.01% | 70.6%

Row | SMILES | percent remaining with NADPH | percent remaining without NADPH
57 | CCCN1CNc2c(c(=O)[nH]c(=S)n2CCc2ccc(OC)c(OC)c2)C1 | 48.6% | 65%
58 | Cc1cc(C(=O)CN2C(=O)CCC2=O)c(C)n1Cc1ccccc1 | 34.5% | 72.6%
59 | Cc1ccc(S(=O)(=O)NCc2ccc(C(=O)NCCN(Cc3ccccc3)C(C)C)cc2)cc1 | 0.01% | 80.3%
60 | O=C(O)c1ccc(N2C(=O)/C(=C/c3ccc(-c4ccc([N+](=O)[O-])cc4)o3)C=C2c2ccccc2)cc1 | 67.9% | 74.3%
61 | CCCN(CCC)CCNC(=O)C1CCN(Cc2nc(-c3ccc(Cl)cc3)oc2C)CC1 | 13.5% | 75.6%
62 | O=C(COC(=O)C12CC3CC(CC(C3)C1)C2)NCc1ccco1 | 84.8% | 100%
63 | O=C1C2CC=CCC2C(=O)N1c1n[nH]c(-c2ccccc2)n1 (centres undefined) | 66.9% | 71%
64 | Cc1ccc(NC(=O)CCC(=O)N/N=C/c2ccc([N+](=O)[O-])o2)cc1C | 37.5% | 72.6%
65 | CCCC(=O)Nc1cccc(NC(=O)c2ccccc2Br)c1 | 46% | 71.2%
66 | Brc1ccc2c(c1)CN1CCCC1=N2 | 56.4% | 77.8%
67 | C/C=C/Cn1c(SCCCc2ccccc2)nc2c1c(=O)[nH]c(=O)n2C | 1.64% | 69.3%
68 | CCN1CCN(c2nc3ccccc3nc2C(C#N)C(=O)OC2CCCCC2)CC1 (centres undefined) | 14.2% | 80.8%
69 | CS(=O)(=O)c1ccc(C(=O)OCC(=O)NC23CC4CC(CC(C4)C2)C3)cc1[N+](=O)[O-] | 5.75% | 81%
70 | O=c1oc2c(O)c(O)cc3c(=O)oc4c(O)c(O)cc1c4c23 | 73.1% | 93.1%
71 | CCCc1cc(C(=O)N(C2CCCCC2)C2CCCCC2)no1 | 5.27% | 57.6%
72 | O=C(CSc1cccc2cccnc12)N1CCCC1 | 47.2% | 78.5%
73 | CCOc1ccc(NC(=S)N2CCC(C(O)(c3ccccc3)c3ccccc3)CC2)cc1 | 22.7% | 62%
74 | c1ccc(-c2nnc(N3CCOCC3)nc2-c2ccccc2)cc1 | 31.1% | 79.8%
75 | CCc1nnc(NC(=O)c2ccc(NS(=O)(=O)c3ccccc3)cc2)s1 | 69.2% | 76.8%
76 | Brc1cc2c(cc1C1Nc3ccccc3C3C=CCC31)OCO2 (centres undefined) | 28.7% | 65.5%
77 | CC(C)C(=O)NC(c1ccco1)c1ccc2cccnc2c1O (centres undefined) | 49.2% | 76.4%

From PubChem BioAssay AID624452 (Sanford-Burnham Center for Chemical Genomics, 2012)
